Experimental findings from ChEMBL document CHEMBL3580639, “Bioactive Limonoid Constituents of Munronia henryi” (J Nat Prod, 2015) are described below.

The structures appear in SMILES notation. Converted amounts (≈) assume the structure as drawn.

One assay relates to HL-60. Briefly: Cytotoxicity against human HL60 cells incubated for 48 hrs by MTT assay. It counts as functional, cell-based. The conditions noted are these: HL-60, 48 h. Background: Tetrazolium assays rely on reduction of a dye to a coloured formazan, in cell work by metabolically active cells.
Another assay deals with MCF7. Briefly: Cytotoxicity against human MCF7 cells incubated for 48 hrs by MTT assay. It counts as functional, cell-based. The conditions noted are these: MCF7, 48 h.
Assay [1] relates to Tobacco mosaic virus. Briefly: Antiviral activity against 30 mins compound pre-treated TMV U1 infected on Nicotiana glutinosa leaves assessed as virus inactivation effect by measuring local lesion numbers after 3 to 4 days post virus inoculation at 50 ug/ml by half-leaf method. It counts as functional. The conditions noted are these: U1, in Nicotiana glutinosa.
For assay [2], the system named is Tobacco mosaic virus. Briefly: Antiviral activity against 30 mins compound pre-treated TMV U1 infected on Nicotiana glutinosa leaves assessed as virus inactivation effect by measuring local lesion numbers after 3 to 4 days post virus inoculation at 40 ug/ml by half-leaf method relative to untreated control. It counts as functional. The conditions noted are these: U1, in Nicotiana glutinosa.

The test system of assay [3] is Tobacco mosaic virus. Briefly: Antiviral activity against 30 mins compound pre-treated TMV U1 infected on Nicotiana glutinosa leaves assessed as virus inactivation effect by measuring local lesion numbers after 3 to 4 days post virus inoculation at 5 ug/ml by half-leaf method relative to untreated control. The conditions noted are these: U1, in Nicotiana glutinosa. In kind it is functional.

Assay [4] relates to Tobacco mosaic virus. Briefly: Potency index, ratio of IC50 for ningnanmycin to IC50 for test compound against 30 mins compound pre-treated TMV U1 infected on Nicotiana glutinosa leaves assessed as virus inactivation effect by measuring local lesion numbers after 3 to 4 days post virus inoculation by half-leaf method relative to untreated control. It counts as functional.
Another assay has as its system SW480. Briefly: Cytotoxicity against human SW480 cells incubated for 48 hrs by MTT assay. It counts as functional, cell-based. The conditions noted are these: SW480, 48 h.
The subject of assay [5] is Tobacco mosaic virus. Briefly: Antiviral activity against 30 mins compound pre-treated TMV U1 infected on Nicotiana glutinosa leaves assessed as virus inactivation effect by measuring local lesion numbers after 3 to 4 days post virus inoculation at 20 ug/ml by half-leaf method relative to untreated control. It counts as functional. The conditions noted are these: U1, in Nicotiana glutinosa.

Assay [6] relates to Tobacco mosaic virus. The experiment in a line: Antiviral activity against 30 mins compound pre-treated TMV U1 infected on Nicotiana glutinosa leaves assessed as virus inactivation effect by measuring local lesion numbers after 3 to 4 days post virus inoculation by half-leaf method relative to untreated control. In kind it is functional, organism-based.
For assay [7], the system named is Tobacco mosaic virus. Briefly: Antiviral activity against TMV U1 infected on compound smeared Nicotiana glutinosa leaves assessed as virus infection protective effect by measuring local lesion numbers after 3 to 4 days post virus inoculation at 200 ug/ml by half-leaf method. The conditions noted are these: U1, in Nicotiana glutinosa. It counts as functional.
The test system of assay [8] is Tobacco mosaic virus. The experiment in a line: Antiviral activity against TMV U1 infected on Nicotiana glutinosa leaves smeared with virus before compound treatment assessed as virus infection curative effect by measuring local lesion numbers after 3 to 4 days post virus inoculation at 200 ug/ml by half-leaf method. In kind it is functional. The conditions noted are these: U1, in Nicotiana glutinosa.

The test system of assay [9] is Tobacco mosaic virus. The experiment in a line: Antiviral activity against 30 mins compound pre-treated TMV U1 infected on Nicotiana glutinosa leaves assessed as virus inactivation effect by measuring local lesion numbers after 3 to 4 days post virus inoculation at 50 ug/ml by half-leaf method relative to untreated control. It counts as functional. The conditions noted are these: U1, in Nicotiana glutinosa.

In another assay the test system is SMMC-7721. The experiment in a line: Cytotoxicity against human SMMC7721 cells incubated for 48 hrs by MTT assay. In kind it is functional, cell-based. The conditions noted are these: SMMC-7721, 48 h.
In assay [10] the test system is Tobacco mosaic virus. The experiment in a line: Antiviral activity against TMV U1 infected on 20 mins compound treated fresh leaves from 5 to 6 growth stage Nicotiana glutinosa assessed as inhibition of virus growth at 50 ug/ml cultured at 25 degC for 72 hrs by half-leaf method. In kind it is functional. The conditions noted are these: U1, in Nicotiana glutinosa.

Assay [11] has as its system Tobacco mosaic virus. The experiment in a line: Antiviral activity against 30 mins compound pre-treated TMV U1 infected on Nicotiana glutinosa leaves assessed as virus inactivation effect by measuring local lesion numbers after 3 to 4 days post virus inoculation at 30 ug/ml by half-leaf method relative to untreated control. In kind it is functional. The conditions noted are these: U1, in Nicotiana glutinosa.

Assay [12] has as its system Tobacco mosaic virus. Briefly: Antiviral activity against 30 mins compound pre-treated TMV U1 infected on Nicotiana glutinosa leaves assessed as virus inactivation effect by measuring local lesion numbers after 3 to 4 days post virus inoculation at 10 ug/ml by half-leaf method relative to untreated control. In kind it is functional. The conditions noted are these: U1, in Nicotiana glutinosa.

For another assay, the system named is A549. Briefly: Cytotoxicity against human A549 cells incubated for 48 hrs by MTT assay. In kind it is functional, cell-based. The conditions noted are these: A549, 48 h.

In general, IC50 refers to the concentration at which inhibition is half-maximal. The inhibition is how much of the control response was suppressed. In the case of `CC(=O)O[C@@H]1[C@@H]2[C@@]3(C)C=CC(=O)OC(C)(C)[C@@H]3CC(=O)[C@@]2(C)[C@@]23O[C@@H]2C[C@@H](c2ccoc2)[C@]3(C)[C@H]1OC(C)=O`, the IC50 in the assay on HL-60 is greater than 10 µM; in the assay with MCF7, greater than 10 µM; in the assay on SW480 it was greater than 10 µM; in the assay with Tobacco mosaic virus [6], 19.6 µg/mL (≈ 36.3 µM); with SMMC-7721, greater than 10 µM; in the assay with A549 it was greater than 10 µM. For the same molecule, the inhibition at 50 µg/mL was 98.2% in the assay on Tobacco mosaic virus [1], 95.6% in the assay with Tobacco mosaic virus [9] and 98.9% with Tobacco mosaic virus [10]. The inhibition at 40 µg/mL in the assay on Tobacco mosaic virus [2] stood at 92.3%. For the same molecule, the inhibition at 5 µg/mL with Tobacco mosaic virus [3] is 11.8%. For the same molecule, the “Ratio IC50” value in the assay on Tobacco mosaic virus [4] is reported as 2. In the assay on Tobacco mosaic virus [5], the inhibition at 20 µg/mL was 62.3%. Moreover, the inhibition at 200 µg/mL came out at 56.7% with Tobacco mosaic virus [7] and 52.8% in the assay on Tobacco mosaic virus [8]. Besides, the inhibition at 30 µg/mL with Tobacco mosaic virus [11] came out at 86.1%. The inhibition at 10 µg/mL in the assay with Tobacco mosaic virus [12] was 30.9%.
`CC(=O)O[C@@H]1[C@@H]2[C@@]3(C)[C@@H](OC(C)=O)CC(=O)OC(C)(C)[C@@H]3CC(=O)[C@@]2(C)[C@@]23O[C@@H]2C[C@@H](c2ccoc2)[C@]3(C)[C@H]1OC(C)=O`: the half-maximal inhibitory concentration (IC50) is greater than 10 µM in the assay with HL-60; greater than 10 µM with MCF7; greater than 10 µM in the assay with SW480; 20.4 µg/mL (≈ 34 µM) in the assay with Tobacco mosaic virus [6]; greater than 10 µM in the assay on SMMC-7721; greater than 10 µM in the assay with A549. In addition, the inhibition at 50 µg/mL in the assay with Tobacco mosaic virus [1] turned out to be 95.3%; with Tobacco mosaic virus [9] it was 93.9%; with Tobacco mosaic virus [10] it was 97.6%. Besides, the inhibition at 40 µg/mL with Tobacco mosaic virus [2] came out at 91.4%. Further, the inhibition at 5 µg/mL in the assay with Tobacco mosaic virus [3] turned out to be 9.7%. The inhibition at 20 µg/mL in the assay on Tobacco mosaic virus [5] was determined as 64.9%. Moreover, the inhibition at 200 µg/mL in the assay with Tobacco mosaic virus [7] turned out to be 60.2%; with Tobacco mosaic virus [8] it was 57.6%. Besides, in the assay on Tobacco mosaic virus [11], the inhibition at 30 µg/mL worked out at 80.3%. Further, the inhibition at 10 µg/mL with Tobacco mosaic virus [12] turned out to be 28.7%.
For `C/C=C(\C)C(=O)O[C@H]1C[C@@H](OC(C)=O)[C@@]2(C)CO[C@H]3[C@@H](O)[C@@]4(C)C5=C(C)[C@H](c6ccoc6)C[C@H]5O[C@@H](OC)C[C@@H]4[C@]1(C)[C@@H]32`, the half-maximal inhibitory concentration (IC50) with HL-60 was greater than 10 µM; in the assay on MCF7, greater than 10 µM; in the assay with SW480, greater than 10 µM; in the assay on Tobacco mosaic virus [6], 28.1 µg/mL (≈ 46.9 µM); in the assay with SMMC-7721, greater than 10 µM; with A549, greater than 10 µM. Further, the inhibition at 50 µg/mL with Tobacco mosaic virus [1] amounted to 88.9%; in the assay on Tobacco mosaic virus [9] it was 86.9%; with Tobacco mosaic virus [10], 98.5%. Moreover, in the assay on Tobacco mosaic virus [2], the inhibition at 40 µg/mL amounted to 70.3%. Besides, in the assay with Tobacco mosaic virus [3], the inhibition at 5 µg/mL stood at 6.3%. In the assay on Tobacco mosaic virus [5], the inhibition at 20 µg/mL was determined as 30.7%. In addition, the inhibition at 200 µg/mL is 63.8% in the assay with Tobacco mosaic virus [7] and 44.9% with Tobacco mosaic virus [8]. The inhibition at 30 µg/mL in the assay with Tobacco mosaic virus [11] came out at 63.5%. In the assay on Tobacco mosaic virus [12], the inhibition at 10 µg/mL turned out to be 16.4%.
On to `CC(=O)O[C@H]1C[C@H]2[C@](C)(C3=CC[C@@H](c4ccoc4)[C@@]31C)[C@H](OC(C)=O)C[C@H]1C(C)(C)OC(=O)C[C@H](OC(C)=O)[C@@]12C` [MUNRONOID L], for which the concentration for half-maximal inhibition (IC50) with HL-60 is greater than 10 µM; in the assay with MCF7 it was greater than 10 µM; with SW480, greater than 10 µM; in the assay on Tobacco mosaic virus [6], 29 µg/mL (≈ 50.8 µM); with SMMC-7721 it was greater than 10 µM; with A549, greater than 10 µM. Also, the inhibition at 50 µg/mL in the assay on Tobacco mosaic virus [1] came to 61.4%; with Tobacco mosaic virus [9], 60.8%; with Tobacco mosaic virus [10], 80%. For the same molecule, the inhibition at 40 µg/mL in the assay with Tobacco mosaic virus [2] was found to be 57.6%. For the same molecule, the inhibition at 5 µg/mL in the assay with Tobacco mosaic virus [3] came to 10.2%. Further, the inhibition at 20 µg/mL in the assay with Tobacco mosaic virus [5] is 48%. Further, the inhibition at 200 µg/mL in the assay with Tobacco mosaic virus [7] came to 42.1%; in the assay on Tobacco mosaic virus [8], 23.7%. In the assay on Tobacco mosaic virus [11], the inhibition at 30 µg/mL was 51.4%. Further, in the assay with Tobacco mosaic virus [12], the inhibition at 10 µg/mL came to 21.5%.
Take `C=C1[C@@H]([C@@]2(C)[C@@H](OC(C)=O)CC(=O)O[C@](C)(COC(C)=O)[C@@H]2C(=O)OC)[C@@H](OC=O)[C@H](OC(=O)[C@H](O)[C@H](C)CC)[C@@]2(C)[C@H](c3ccoc3)CC(=O)[C@]12O` [PRIEURIANIN]: the 50% inhibitory concentration (IC50) in the assay with HL-60 is 4.8 µM; in the assay on MCF7, 2.2 µM; in the assay on SW480 it was 1.2 µM; in the assay on Tobacco mosaic virus [6], 44.4 µg/mL (≈ 59.3 µM); in the assay with SMMC-7721, 0.73 µM; in the assay with A549 it was 1 µM. Further, the inhibition at 50 µg/mL in the assay on Tobacco mosaic virus [1] worked out at 68.1%; in the assay with Tobacco mosaic virus [9] it was 70.5%; with Tobacco mosaic virus [10] it was 75.9%. Moreover, the inhibition at 40 µg/mL in the assay with Tobacco mosaic virus [2] turned out to be 39.3%. Besides, the inhibition at 20 µg/mL with Tobacco mosaic virus [5] is 11.7%. Further, the inhibition at 200 µg/mL with Tobacco mosaic virus [7] came to 45.7%; in the assay on Tobacco mosaic virus [8], 41.6%. Also, in the assay with Tobacco mosaic virus [11], the inhibition at 30 µg/mL is 35.6%. Further, the inhibition at 10 µg/mL with Tobacco mosaic virus [12] came out at 3.5%.
